Results from patent US20220249599A1, “TREATMENT OF IMPLANTS WITH ENGINEERED ANTIMICROBIAL AMPHIPHILIC PEPTIDES” (priority 2018, published 2022).
≈ marks a conversion by molar mass, not a printed value. Where “and” joins values, the source holds several entries; their conditions need not be identical. Identical values can stand only once. Like-named read-outs stand apart in the source and are kept apart here. One block for each molecule: values may come before it. Bridge positions count the residues as written; N and C are the ends. Square brackets hold non-standard residues; d marks the D form. Ends that are not written are not given here. Peptide text beside a SMILES is read from it. * marks the point of attachment. X1 = CC[C@H](C)CCCCC(=O)*; Dab = NCC[C@H](N)C(=O)O

How the values were obtained:
[1] = system: S. aureus strain SH1000 biofilms; assay: In vitro biofilm disruption on stainless steel rods; type: cell-based; settings: S. aureus SH1000, 10×MIC, up to 24 hours
From the text: FIG. 15 depicts the effect of administration of SEQ ID NO:1 and cefazolin on biofilm maintenance. […] SEQ ID NO:1 eliminated mature implant biofilms on a model strain of S. aureus, SH1000.

S. aureus = assay: Periprosthetic joint infection mouse model, implant biofilm CFU burden; type: in vivo; settings: intraperitoneal delivery, versus untreated control mice
Experimental: Periprosthetic joint infection was modeled in a mouse by placing an intra-articular K-wire through the medullary canal of the proximal femur followed by intra-articular inoculation with S. aureus. Animals were treated systemically with an intraperitoneal delivery of cefazolin, rifampin, or the exemplary peptide of SEQ ID NO:1. Intraperitoneal delivery was chosen due to technical difficulties associated with intravenous delivery. Implant sonication and proximal femur homogenate were used to quantify viable bacteria.

[2] = system: Acinetobacter baumannii ATCC 19606 (non-MDR); type: cell-based; settings: Acinetobacter baumannii ATCC 19606 (non-MDR)
Experimental: (§1) Each peptide was formulated in PBS buffer prior to testing. Peptides of SEQ ID NO:5 and SEQ ID NO:8 were brought up in 100% DMSO with 0.002% polysorbate-80 at 1.28 mg/mL (40× the highest final test concentration of 32 mcg/mL). Final test concentration of DMSO was 2.5% in the assay at the first dilution for those two compounds.
(§2) Mueller Hinton II broth (MHB II; BD; Lot Nos. 6258541 and 7143896) was used for MIC testing of aerobic organisms. 0.002% polysorbate 80 (P80) was added to the test medium.
(§3) MIC values were determined using a broth microdilution procedure described by CLSI (1, 3). Automated liquid handlers (Multidrop 384, Labsystems, Helsinki, Finland; Biomek 2000 and Biomek FX, Beckman Coulter, Fullerton Calif.) were used to conduct serial dilutions and liquid transfers.
(§4) To prepare the drug mother plates, which would provide the serial peptide dilutions for the replicate daughter plates, the wells of columns 2-12 of standard 96-well microdilution plates (Costar 3795) were filled with 150 µl of the designated diluent for each row of peptide.
(§5) The test articles and comparator compounds ([…] at 40× the highest concentration to be tested) were dispensed into the appropriate wells in column 1. The Biomek 2000 was then used to make 2-fold serial dilutions in the mother plates from column 1 through column 11. The wells of Column 12 contained no drug and served as the organism growth control wells for the assay.
(§6) The daughter plates were loaded with 185 μL per well of MHB II using the Multidrop 384. The daughter plates were completed on the Biomek FX instrument which transferred 5 uL of peptide solution from each well of a mother plate to the corresponding well of each daughter plate in a single step. A standardized inoculum of each test organism was prepared per CLSI methods. The inoculum for each organism was dispensed into sterile reservoirs divided by length (Beckman Coulter), and the Biomek 2000 was used to inoculate the plates. Daughter plates were placed on the Biomek 2000 work surface in reverse orientation so that inoculation took place from low to high drug concentration.
(§7) Plates were stacked 3-4 high, covered with a lid on the top plate, placed in plastic bags, and incubated at 35° C. for 16 to 20 hrs. Following incubation, the microplates were removed from the incubator and viewed from the bottom using a plate viewer. […] The MIC was read and recorded as the lowest concentration of peptide that inhibited visible growth of the organism.

[3] = system: Enterococcus faecalis ATCC 29212 (VSE; QC); type: cell-based; settings: Enterococcus faecalis ATCC 29212 (VSE; QC)
Experimental: as §1, §2, §3, §4, §5, §6, §7

[4] = system: Enterococcus faecalis ATCC 700802 (V583 VRE); type: cell-based; settings: Enterococcus faecalis ATCC 700802 (V583 VRE)
Experimental: as §1, §2, §3, §4, §5, §6, §7

[5] = system: Enterococcus faecium ATCC 51559 (VRE); type: cell-based; settings: Enterococcus faecium ATCC 51559 (VRE)
Experimental: as §1, §2, §3, §4, §5, §6, §7

[6] = system: Escherichia coli ATCC 25922 (QC); type: cell-based; settings: Escherichia coli ATCC 25922 (QC)
Experimental: as §1, §2, §3, §4, §5, §6, §7

[7] = system: Escherichia coli ATCC 35218 (ESBL); type: cell-based; settings: Escherichia coli ATCC 35218 (ESBL)
Experimental: as §1, §2, §3, §4, §5, §6, §7

[8] = system: Escherichia coli ATCC BAA-2471 (NDM-1); type: cell-based; settings: Escherichia coli ATCC BAA-2471 (NDM-1)
Experimental: as §1, §2, §3, §4, §5, §6, §7

[9] = system: Klebsiella pneumoniae ATCC BAA-1705 (KPC); type: cell-based; settings: Klebsiella pneumoniae ATCC BAA-1705 (KPC)
Experimental: as §1, §2, §3, §4, §5, §6, §7

[10] = system: Pseudomonas aeruginosa ATCC 27853 (non-MDR; QC); type: cell-based; settings: Pseudomonas aeruginosa ATCC 27853 (non-MDR; QC)
Experimental: as §1, §2, §3, §4, §5, §6, §7

[11] = system: Pseudomonas aeruginosa ATCC BAA-2109 (MDR); type: cell-based; settings: Pseudomonas aeruginosa ATCC BAA-2109 (MDR)
Experimental: as §1, §2, §3, §4, §5, §6, §7

[12] = system: Staphylococcus aureus ATCC 29213 (MSSA; QC); type: cell-based; settings: Staphylococcus aureus ATCC 29213 (MSSA; QC)
Experimental: as §1, §2, §3, §4, §5, §6, §7

[13] = system: Staphylococcus aureus ATCC 43300 (MRSA); type: cell-based; settings: Staphylococcus aureus ATCC 43300 (MRSA)
Experimental: as §1, §2, §3, §4, §5, §6, §7

[14] = system: Staphylococcus aureus NRS382 (USA100; HA-MRSA); type: cell-based; settings: Staphylococcus aureus NRS382 (USA100; HA-MRSA)
Experimental: as §1, §2, §3, §4, §5, §6, §7

[15] = system: Streptococcus agalactiae ATCC 13813; type: cell-based
Experimental: as §1, §2, §3, §4, §5, §6, §7

[16] = system: Streptococcus pneumoniae ATCC 49619 (QC); type: cell-based; settings: Streptococcus pneumoniae ATCC 49619 (QC)
Experimental: as §1, §2, §3, §4, §5, §6, §7

[17] = system: Streptococcus pyogenes ATCC 49399; type: cell-based; settings: Streptococcus pyogenes ATCC 49399
Experimental: as §1, §2, §3, §4, §5, §6, §7

[18] = system: Acinetobacter baumannii ATCC BAA-1797 (MDR); assay: microbe, parasite or virus in culture; type: cell-based; settings: Acinetobacter baumannii ATCC BAA-1797 (MDR)
Experimental: as §1, §2, §3, §4, §5, §6, §7

[19] = system: Acinetobacter spp. (n = 104); type: cell-based; settings: Acinetobacter spp. (n = 104); for % R (isolates resistant): CLSI breakpoints
Experimental: (§8) The clinical isolates were obtained from USA hospitals. […] Plates were incubated at 35° C. overnight.

[20] = system: Escherichia coli (n = 101); type: cell-based; settings: Escherichia coli (n = 101); for % R (isolates resistant): CLSI breakpoints, colistin EUCAST
Experimental: as §8

[21] = system: Klebsiella pneumoniae (n = 101); type: cell-based; settings: Klebsiella pneumoniae (n = 101); for % R (isolates resistant): CLSI breakpoints, colistin EUCAST
Experimental: as §8

[22] = system: Pseudomonas aeruginosa (n = 109); type: cell-based; settings: Pseudomonas aeruginosa (n = 109); for % R (isolates resistant): CLSI breakpoints
Experimental: as §8

[23] = system: Enterobacter spp. (n = 102); type: cell-based, Enterobacter aerogenes and E. cloacae; settings: Enterobacter spp. (n = 102); for % R (isolates resistant): CLSI breakpoints, colistin EUCAST
Experimental: as §8

[24] = system: P. aeruginosa strains (PAO1 and 2 clinical isolates); type: cell-based; settings: three P. aeruginosa strains, 0.5×MIC exposure
From the text: Each antibiotic was compared for their propensity to select for bacterial resistance phenotypes in vitro.

[25] = system: Escherichia coli ATCC 25922 (QC); settings: cited from earlier work
[26] = system: Pseudomonas aeruginosa ATCC 27853 (non-MDR; QC); settings: cited from earlier work
[27] = system: Staphylococcus aureus ATCC 29213 (MSSA; QC); settings: cited from earlier work
[28] = system: Streptococcus pneumoniae ATCC 49619 (QC); settings: cited from earlier work
[29] = system: Enterococcus faecalis ATCC 29212 (VSE; QC); settings: cited from earlier work
[30] = macaques, 1.0 mg/kg, 30 min IV infusion, one line per individual monkey (4000, 4001, 4002)
Experimental: Animals will be obtained from the Test Facility's colony of adult male cynomolgous monkeys (Macaca fascicularis) of Chinese origin. Animals will be weighed prior to dosing.
Intravenous administration will be via 30 minute infusion into a temporary percutaneous catheter placed into a saphenous vein. Prior to and following dose administration, the catheter will be flushed with 0.5 mL saline prior to removal. All dosing syringes will be weighed prior to and following dosing.
Serial blood samples will be collected via femoral vein (cephalic or saphenous, as necessary). Approximately 1 mL blood samples will be collected into K2EDTA tubes.
Blood samples will be collected into K2EDTA tubes and stored on wet ice. Whole blood will be processed to plasma by centrifugation (2400-2700 rpm at 5° C.) within 30 minutes of collection. Plasma samples will be split into 2 equal aliquots and stored at −80° C. until analysis.
The peptide will be purified from plasma samples from each macaque using a cation exchange-based solid-phase extraction process. Prior to extraction, a known concentration of a mass-adjusted internal standard (IS) will be added to assess recovery and allow for quantitation. Purified samples will be further subjected to high-performance liquid chromatography (HPLC) using C18 300 or 130 angstrom columns prior to MS/MS analysis. Multiple charge states will be observed by MS, so MS/MS will be employed to enable multiple reaction monitoring (MRM) analyses to determine the most MRM transitions with the highest signal-to-noise gain. Compound plasma concentrations will be determined by comparing to and compensating with co-purified IS peak intensity and validated calibrated standard curves.
Toxicokinetic parameters will be calculated using non-compartmental methods as implemented in the Phoenix® WinNonlin® ver. 6.3 comprehensive TK/PK analysis software program (Pharsight Corporation; Mountain View, Calif.) using an IV infusion model. […] Values below the lower limit of quantitation (BLQ) will be assigned a value of zero for the toxicokinetic calculations. […]

Molecule: Cc1nnc(SCC2=C(C(=O)O)N3C(=O)[C@@H](NC(=O)Cn4cnnn4)[C@H]3SC2)s1 [Cefazolin, cefazolin]
Reduction of mature biofilm on stainless steel rods [1]: did not achieve a three-log reduction
Reduction of implant biofilm CFU burden (sonicate culture) (S. aureus): one log reduction in viable bacteria as compared to untreated controls, but this reduction was not statistically significant

Molecule: CC[C@H](C)CCCCC(=O)N[C@@H](CCN)C(=O)N[C@H](C(=O)N[C@@H](CCN)C(=O)N[C@H]1CCNC(=O)[C@H]([C@@H](C)O)NC(=O)[C@H](CCN)NC(=O)[C@H](CCN)NC(=O)[C@H](CC(C)C)NC(=O)[C@@H](CC(C)C)NC(=O)[C@H](CCN)NC1=O)[C@@H](C)O [Colistin, reference compound] (X1-[Dab]T[Dab][Dab][Dab][dL]L[Dab][Dab]T; lactam 4-C)
MIC [2]: 0.25 µg/mL (≈ 0.214 µM)
MIC [3]: >32 µg/mL
MIC [4]: >32 µg/mL
MIC [5]: >32 µg/mL
MIC [6]: 0.12 µg/mL (≈ 0.103 µM)
MIC [7]: 0.12 µg/mL (≈ 0.103 µM)
MIC [8]: 0.06 µg/mL (≈ 0.0513 µM)
MIC [9]: 0.12 µg/mL (≈ 0.103 µM)
MIC [10]: 0.25 µg/mL (≈ 0.214 µM)
MIC [11]: 0.12 µg/mL (≈ 0.103 µM)
MIC [12]: >32 µg/mL
MIC [13]: >32 µg/mL
MIC [14]: >32 µg/mL
MIC [15]: >32 µg/mL
MIC [16]: >32 µg/mL
MIC [17]: >32 µg/mL
MIC [18]: 0.5 µg/mL (≈ 0.428 µM)
MIC50 [19]: 0.25 µg/mL (≈ 0.214 µM)
MIC90 [19]: >32 µg/mL
Mode (MIC) [19]: 0.25 µg/mL
% R (isolates resistant) [19]: 20.2%
MIC50 [20]: 0.12 µg/mL (≈ 0.103 µM)
MIC90 [20]: 0.12 µg/mL (≈ 0.103 µM)
MIC range [20]: ≤0.03 to 0.5 µg/mL
Mode (MIC) [20]: 0.12 µg/mL
% R (isolates resistant) [20]: 0%
MIC50 [21]: 0.12 µg/mL (≈ 0.103 µM)
MIC90 [21]: 32 µg/mL (≈ 27.4 µM)
Mode (MIC) [21]: 0.12 µg/mL
% R (isolates resistant) [21]: 27.7%
MIC50 [22]: 0.5 µg/mL (≈ 0.428 µM)
MIC90 [22]: 1 µg/mL (≈ 0.855 µM)
Mode (MIC) [22]: 0.5 µg/mL
% R (isolates resistant) [22]: 7.3%
MIC50 [23]: 0.12 µg/mL (≈ 0.103 µM)
MIC90 [23]: 0.25 µg/mL (≈ 0.214 µM)
Mode (MIC) [23]: 0.12 µg/mL
% R (isolates resistant) [23]: 5.8%
Time to development of resistance (fold MIC>10) [24]: 13 days
MIC range in parentheses below the MIC (QC range) [25]: (0.25-2) μg/mL
MIC range in parentheses below the MIC (QC range) [26]: (0.5-4) μg/mL

MIC ([18]; ATCCBAA1797, read-out: MIC): > 4 µg/mL
Molecule: C[C@@H](O)[C@H]1C(=O)N2C(C(=O)O)=C(S[C@@H]3CN[C@H](C(=O)N(C)C)C3)[C@H](C)[C@H]12 [Meropenem]
% R (isolates resistant) [19]: 65.4%
% R (isolates resistant) [20]: 1%
% R (isolates resistant) [21]: 50.5%
% R (isolates resistant) [22]: 20.2%
% R (isolates resistant) ([22]; listed as meropenem): 20%
% R (isolates resistant) [23]: 3.9%
MIC range in parentheses below the MIC (QC range) [27]: (0.03-0.12) μg/mL
MIC range in parentheses below the MIC (QC range) [28]: (0.03-0.25) μg/mL
MIC range in parentheses below the MIC (QC range) [29]: (2-8) μg/mL
MIC range in parentheses below the MIC (QC range) [25]: (0.008-0.06) μg/mL
MIC range in parentheses below the MIC (QC range) [26]: (0.12-1) μg/mL

Molecule: KKTHTKTKKTHTKTKKTHTK [SEQ ID NO: 13]
Dose Normalized Cmax [30]: 5000 and 7000 and 6000
